Values of other authors as cited in US6432971B1, “Method of prevention of prostatic carcinoma with 17β-N-monosubstituted-carbamoyl-4-aza-5α-androst-1-en-3-ones” (Merck & Co., Inc., priority 1991, dated 2002).

Assays:
[1] = system: testosterone-5α-reductase; settings: in vitro; Voigt and Hsia, Endocrinology 92, 1216 (1973)
[2] = system: female hamster flank organ; settings: for effect on flank organ response elicited by 5α-dihydrotestosterone: concomitant administration with topical 5α-dihydrotestosterone; for effect on flank organ response elicited by testosterone: concomitant administration with topical testosterone

C[C@]12CC[C@H]3[C@@H](CCC4=CC(=O)CC[C@@]43C)[C@@H]1CC[C@@H]2C(=O)O [4-androsten-3-one-17β-carboxylic acid]
inhibition of testosterone-5α-reductase [1]: active inhibitors of testosterone-5α-reductase in vitro
effect on flank organ response elicited by 5α-dihydrotestosterone [2]: did not inhibit the response elicited by 5α-dihydrotestosterone
effect on flank organ response elicited by testosterone [2]: inhibited the response elicited by testosterone

COC(=O)[C@H]1CC[C@H]2[C@@H]3CCC4=CC(=O)CC[C@]4(C)[C@H]3CC[C@]12C [methyl 4-androsten-3-one-17β-carboxylate]
inhibition of testosterone-5α-reductase [1]: active inhibitors of testosterone-5α-reductase in vitro
effect on flank organ response elicited by 5α-dihydrotestosterone [2]: did not inhibit the response elicited by 5α-dihydrotestosterone
effect on flank organ response elicited by testosterone [2]: inhibited the response elicited by testosterone
